One test concerns Alternaria solani. In words: Alternaria test (tomatoes)/preventive. To be noted: preventive spray, evaluated 3 days after inoculation. The class given is in vivo. The method, then:
Alternaria Test (Tomatoes)/Preventive
(§1) To produce a suitable preparation of active compound, 1 part by weight of active compound is mixed with the stated amounts of solvent and emulsifier, and the concentrate is diluted with water to the desired concentration.
To test for preventive activity, young plants are sprayed with the preparation of active compound at the stated rate of application. After the spray coating has dried on, the plants are inoculated with an aqueous spore suspension of Alternaria solani. The plants are then placed in an incubation cabinet at approximately 20° C. and a relative atmospheric humidity of 100%.
The test is evaluated 3 days after the inoculation. 0% means an efficacy which corresponds to that of the untreated control while an efficacy of 100% means that no disease is observed.

The next test deals with Phakopsora pachyrhizi. Description: Phakopsora test (soybeans)/preventive. The format is in vivo. To be noted: preventive spray, evaluated 7 days after inoculation. The method, then:
Phakopsora Test (Soybeans)/Preventive
as §1
To test for preventive activity, young plants are sprayed with the preparation of active compound at the stated rate of application. After the spray coating has dried on, the plants are inoculated with an aqueous spore suspension of the causal agent of soybean rust (Phakopsora pachyrhizi) and stay for 24 h without light in an incubation cabinet at approximately 24° C. and a relative atmospheric humidity of 95%.
The plants remain in the incubation cabinet at approximately 24° C. and a relative atmospheric humidity of approximately 80% and a day/night interval of 12 h.
The test is evaluated 7 days after the inoculation. 0% means an efficacy which corresponds to that of the untreated control, while an efficacy of 100% means that no disease is observed.

As to `Cn1c(=O)c2sc3c(=O)n(C)c(=O)c3sc2c1=O` [2.1, 2,6-dimethyl-1H,5H-[1,4]dithiino[2,3-c:5,6-c′]dipyrrole-1,3,5,7(2H,6H)-tetrone], the “Efficacy in % found” value was 39% with Alternaria solani (25 ppm a.i.) and 8% in the test with Phakopsora pachyrhizi (25 ppm a.i.).
As for propineb [2.2], the “Efficacy in % found” value in the test with Alternaria solani (25 ppm a.i.) amounted to 33%; in the test with Phakopsora pachyrhizi (25 ppm a.i.), 0%.
As for `CC1CC(C)(C)c2cccc(NC(=O)c3cn(C)nc3C(F)F)c21` (stereo not drawn) [(I-1), 3-(difluoromethyl)-1-methyl-N-(1,1,3-trimethyl-2,3-dihydro-1H-inden-4-yl)-1H-pyrazole-4-carboxamide], the “Efficacy in % found” value in the test on Alternaria solani (2.5 ppm a.i.) is reported as 36%; with Phakopsora pachyrhizi (2.5 ppm a.i.) it was 68%.

The values above are taken from patent US10111434B2, “Binary fungicidal mixtures” (BAYER CROPSCIENCE AG, priority 2012, dated 2018).
